Measurements: PubChem BioAssay AID330 (DTP/NCI, 2004)
Several values for one entry are separate records, joined by “and”; a condition that tells them apart may be missing. Equal entries are not always repeated. Toxic doses and inconclusive results are not listed.

Test system: P388 leukemia ip, CD2F1 mice, survival T/C
Assay: NCI In Vivo Anticancer Drug Screen. Data for tumor model P388 Leukemia (intraperitoneal) in CD2F1 (CDF1) mice
Conditions: endpoint: median survival time, higher = longer survival
Method in brief: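 Mice carrying the transplanted tumor received test compound or vehicle. Survival was recorded in each group, and the value is the treated-group measurement divided by that of the vehicle-treated control group.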

[1] = dose: 60.0 mg/kg/injection, schedule: Q01DX005 (ip), vehicle: saline with Tween-80
[2] = dose: 120.0 mg/kg/injection, schedule: Q01DX005 (ip), vehicle: saline with Tween-80
[3] = dose: 240.0 mg/kg/injection, schedule: Q01DX005 (ip), vehicle: saline with Tween-80
[4] = dose: 100.0 mg/kg/injection, schedule: Q04DX002 (ip), vehicle: saline
[5] = dose: 200.0 mg/kg/injection, schedule: Q04DX002 (ip), vehicle: saline
[6] = dose: 400.0 mg/kg/injection, schedule: Q04DX002 (ip), vehicle: saline
[7] = dose: 50.0 mg/kg/injection, schedule: Q01DX005 (ip), vehicle: saline with Tween-80
[8] = dose: 100.0 mg/kg/injection, schedule: Q01DX005 (ip), vehicle: saline with Tween-80
[9] = dose: 25.0 mg/kg/injection, schedule: Q01DX009 (ip), vehicle: saline with Tween-80
[10] = dose: 50.0 mg/kg/injection, schedule: Q01DX009 (ip), vehicle: saline with Tween-80
[11] = dose: 100.0 mg/kg/injection, schedule: Q01DX009 (ip), vehicle: saline with Tween-80
[12] = dose: 100.0 mg/kg/injection, schedule: Q04DX003 (ip), vehicle: saline with Tween-80
[13] = dose: 200.0 mg/kg/injection, schedule: Q01DX005 (ip), vehicle: saline with Tween-80

COc1ccc2cc1Oc1ccc(cc1)CC1c3cc(OC)c(OC)c(c3CCN1C)Oc1c(OC)c(OC)cc3c1[C@H](C2)NCC3 (some centres not stated) was tested, and the T/C (dose: 2.75 mg/kg/injection, schedule: Q01DX005 (ip), vehicle: Klucel (hydroxypropylcellulose) (HPC)) was 90 % of control, the T/C (dose: 5.5 mg/kg/injection, schedule: Q01DX005 (ip), vehicle: Klucel (hydroxypropylcellulose) (HPC)) was 99 % of control and the T/C (dose: 11.0 mg/kg/injection, schedule: Q01DX005 (ip), vehicle: Klucel (hydroxypropylcellulose) (HPC)) was 99 % of control. The T/C (dose: 22.0 mg/kg/injection, schedule: Q01DX005 (ip), vehicle: Klucel (hydroxypropylcellulose) (HPC)) was 94 % of control.

CS(=O)(=O)Cc1cc(-c2ccccc2)no1 was tested, and the T/C [1] was 100 % of control, the T/C [2] was 99 % of control and the T/C [3] was 100 % of control.

In the case of CCO/C=C1/N=C(c2ccc(OC)c(OC)c2)OC1=O, the T/C [1] is reported as 110 % of control.

CC(=O)C1C(C=C(C)C)C1(C)C (configuration not stated) was tested, and the T/C (dose: 100.0 mg/kg/injection, schedule: Q04DX002 (ip), vehicle: saline with Tween-80) was 96 % of control, the T/C (dose: 200.0 mg/kg/injection, schedule: Q04DX002 (ip), vehicle: saline with Tween-80) was 106 % of control and the T/C (dose: 400.0 mg/kg/injection, schedule: Q04DX002 (ip), vehicle: saline with Tween-80) was 101 % of control.

Cc1ccc(S(=O)(=O)C(Br)CC(=O)c2ccccc2)cc1 (configuration not stated) was tested, and the T/C [4] was 100 % of control, the T/C [5] was 101 % of control and the T/C [6] was 109 % of control.

For CC(C)(C)[Si](C)(C)CC#C[Si](C)(C)C, the T/C [7] was 104 % of control and the T/C [8] was 103 % of control.

For CCOC(=O)N1CCc2cc(OC)c(OC)cc2/C1=C/c1ccsc1, the T/C (dose: 50.0 mg/kg/injection, schedule: Q01DX005 (ip), vehicle: Klucel (hydroxypropylcellulose) (HPC)) was 105 % of control, the T/C (dose: 100.0 mg/kg/injection, schedule: Q01DX005 (ip), vehicle: Klucel (hydroxypropylcellulose) (HPC)) was 102 % of control and the T/C (dose: 200.0 mg/kg/injection, schedule: Q01DX005 (ip), vehicle: Klucel (hydroxypropylcellulose) (HPC)) was 96 % of control.

With ClCc1ccc(CCl)c(Cl)c1Cl the T/C [9] was 100 % of control, the T/C (dose: 25.0 mg/kg/injection, schedule: Q04DX003 (ip), vehicle: saline with Tween-80) was 100 % of control and the T/C [10] was 95 % of control. For the same molecule, the T/C (dose: 50.0 mg/kg/injection, schedule: Q04DX003 (ip), vehicle: saline with Tween-80) was 95 % of control, the T/C [11] was 95 % of control and the T/C [12] was 95 % of control.

For CSc1nc2c(Br)cnn2c(=O)[nH]1, the T/C (dose: 100.0 mg/kg/injection, schedule: Q01DX001 (ip), vehicle: saline with Tween-80) was 94 % of control, the T/C (dose: 200.0 mg/kg/injection, schedule: Q01DX001 (ip), vehicle: saline with Tween-80) was 101 % of control and the T/C (dose: 400.0 mg/kg/injection, schedule: Q01DX001 (ip), vehicle: saline with Tween-80) was 100 % of control.

In the case of C[n+]1cccc(SC2CCC3CC4CC3C2C4)c1 (configuration not stated), the T/C (dose: 12.5 mg/kg/injection, schedule: Q01DX009 (ip), vehicle: saline with Tween-80) is reported as 113 % of control and the T/C [9] is reported as 102 % of control.

CCC1(O)C(=O)OCc2c1cc(-c1ccc(Cl)cc1)nc2OC (configuration not stated) was tested, and the T/C (dose: 12.5 mg/kg/injection, schedule: Q01DX009 (ip), vehicle: distilled water + Tween-80) was 101 % of control, the T/C (dose: 25.0 mg/kg/injection, schedule: Q01DX009 (ip), vehicle: distilled water + Tween-80) was 100 % of control and the T/C (dose: 50.0 mg/kg/injection, schedule: Q01DX009 (ip), vehicle: distilled water + Tween-80) was 99 % of control. For the same molecule, the T/C (dose: 100.0 mg/kg/injection, schedule: Q01DX009 (ip), vehicle: distilled water + Tween-80) was 91 % of control and the T/C (dose: 200.0 mg/kg/injection, schedule: Q01DX009 (ip), vehicle: distilled water + Tween-80) was 98 % of control.

With O=C1c2ccccc2C(=O)c2cc3c(cc21)OCO3 the T/C (dose: 60.0 mg/kg/injection, schedule: Q01DX005 (ip), vehicle: Klucel (hydroxypropylcellulose) (HPC)) was 88 % of control and the T/C (dose: 120.0 mg/kg/injection, schedule: Q01DX005 (ip), vehicle: Klucel (hydroxypropylcellulose) (HPC)) was 89 % of control.

In the case of CCC(=O)N(C)C(C)C(=O)OC1CC(=O)N(C)c2cc(cc(OC)c2Cl)CC(CO)=C/C=C/C(OC)C2(O)CC(OC(=O)N2)C(C)C2OC12C (configuration not stated), the T/C (dose: 50.0 micrograms/kg/injection, schedule: Q01DX009 (ip), vehicle: saline + alcohol) is reported as 124 % of control, the T/C (dose: 100.0 micrograms/kg/injection, schedule: Q01DX009 (ip), vehicle: saline + alcohol) is reported as 158 % of control and the T/C (dose: 400.0 micrograms/kg/injection, schedule: Q01DX009 (ip), vehicle: saline + alcohol) is reported as 150 % of control and 158 % of control. The T/C (dose: 800.0 micrograms/kg/injection, schedule: Q01DX009 (ip), vehicle: saline + alcohol) was 155 % of control.

In the case of COc1cc(C2c3cc(O)c(OC)cc3CC(C(=O)O)C2CO)ccc1O (configuration not stated), the T/C [7] is reported as 100 % of control, the T/C [8] is reported as 97 % of control and the T/C [13] is reported as 98 % of control.

With [N-]=[N+]=NCCN(Cc1ccccc1)Cc1ccccc1 the T/C [7] was 104 % of control, the T/C [8] was 104 % of control and the T/C [13] was 114 % of control.

For CC(CCC(=O)O)(c1ccc(O)cc1)c1ccc(O)cc1, the T/C (dose: 100.0 mg/kg/injection, schedule: Q04DX003 (ip), vehicle: other) was 95 % of control, the T/C (dose: 200.0 mg/kg/injection, schedule: Q04DX003 (ip), vehicle: other) was 95 % of control and the T/C (dose: 400.0 mg/kg/injection, schedule: Q04DX003 (ip), vehicle: other) was 90 % of control.

In the case of COc1cc(OC)c2c(c1Cl)OCC2=O, the T/C (dose: 50.0 mg/kg/injection, schedule: Q01DX009 (ip), vehicle: saline sonified) is reported as 95 % of control, the T/C (dose: 100.0 mg/kg/injection, schedule: Q01DX009 (ip), vehicle: saline sonified) is reported as 104 % of control and the T/C (dose: 200.0 mg/kg/injection, schedule: Q01DX009 (ip), vehicle: saline sonified) is reported as 100 % of control.

For CCC(c1ccc(O)cc1)c1cc2c(cc1OCC(=O)OC)OCO2 (configuration not stated), the T/C [7] was 97 % of control, the T/C [8] was 93 % of control and the T/C [13] was 88 % of control.

CCCCCCCC/C=C\CCCCCCCCN1CN=C(N)N(C#N)C1 was tested, and the T/C [12] was 101 % of control, the T/C (dose: 200.0 mg/kg/injection, schedule: Q04DX003 (ip), vehicle: saline with Tween-80) was 100 % of control and the T/C (dose: 400.0 mg/kg/injection, schedule: Q04DX003 (ip), vehicle: saline with Tween-80) was 103 % of control.

With CC/C(=N\NC(=S)SC)c1ccccc1 the T/C [10] was 91 % of control, the T/C [11] was 100 % of control and the T/C (dose: 200.0 mg/kg/injection, schedule: Q01DX009 (ip), vehicle: saline with Tween-80) was 97 % of control.

With CN(C)C1C(O)C2Oc3c(cc(O)c4c3C(=O)c3cc5c(c(O)c3C4=O)C(N3CCCC3)CC(C)(O)C5)C(C)(O2)C1O (configuration not stated) the T/C (dose: 3.12 mg/kg/injection, schedule: Q01DX009 (ip), vehicle: other) was 113 % of control, the T/C (dose: 6.25 mg/kg/injection, schedule: Q01DX009 (ip), vehicle: other) was 116 % of control and the T/C (dose: 12.5 mg/kg/injection, schedule: Q01DX009 (ip), vehicle: other) was 122 % of control.

With Nc1ccccc1N=C(CC(=O)c1ccccc1)C(F)(F)F the T/C [4] was 99 % of control, the T/C [5] was 101 % of control and the T/C [6] was 97 % of control.

In the case of O=C(O)c1cc(-c2ccc(Cl)c(Cl)c2)nc2cc3ccccc3cc12, the T/C (dose: 50.0 mg/kg/injection, schedule: Q01DX009 (ip), vehicle: Klucel (hydroxypropylcellulose) (HPC)) is reported as 110 % of control, the T/C (dose: 100.0 mg/kg/injection, schedule: Q01DX009 (ip), vehicle: Klucel (hydroxypropylcellulose) (HPC)) is reported as 106 % of control and the T/C (dose: 200.0 mg/kg/injection, schedule: Q01DX009 (ip), vehicle: Klucel (hydroxypropylcellulose) (HPC)) is reported as 95 % of control.

In the case of CCOC(=O)CCCCCOC1CCCCO1 (configuration not stated), the T/C [1] is reported as 98 % of control, the T/C [2] is reported as 97 % of control and the T/C [3] is reported as 103 % of control.

In the case of Clc1ccc(N=Cc2ccc(C=Nc3ccc(Cl)cc3)cc2)cc1, the T/C (dose: 6.25 mg/kg/injection, schedule: Q01DX009 (ip), vehicle: Klucel (hydroxypropylcellulose) (HPC)) is reported as 94 % of control, the T/C (dose: 12.5 mg/kg/injection, schedule: Q01DX009 (ip), vehicle: Klucel (hydroxypropylcellulose) (HPC)) is reported as 91 % of control and the T/C (dose: 25.0 mg/kg/injection, schedule: Q01DX009 (ip), vehicle: Klucel (hydroxypropylcellulose) (HPC)) is reported as 94 % of control.
